In patent publication US20250333407A1, “Compounds and Their Use for Treatment of Hemoglobinopathies” (Bristol-Myers Squibb Company, priority 2024, published 2025):

Tests used:
Type in all cases: cell-based
ZBTB7A = target: T1, ZBTB7A (Homo sapiens, UniProt O95365+Q96SW2); assay: HUDEP-2 ZBTB7A HiBiT degradation assay; settings: HiBiT-tagged ZBTB7A degradation in HUDEP-2 cells, 24 hours of treatment; read-out: ZBTB7A EC50
T1 construct: HUDEP-2 cells engineered to express a HiBiT tag in either the WIZ (Widely interspaced zinc finger) or ZBTB7A
T1 sequence (O95365 whole entry): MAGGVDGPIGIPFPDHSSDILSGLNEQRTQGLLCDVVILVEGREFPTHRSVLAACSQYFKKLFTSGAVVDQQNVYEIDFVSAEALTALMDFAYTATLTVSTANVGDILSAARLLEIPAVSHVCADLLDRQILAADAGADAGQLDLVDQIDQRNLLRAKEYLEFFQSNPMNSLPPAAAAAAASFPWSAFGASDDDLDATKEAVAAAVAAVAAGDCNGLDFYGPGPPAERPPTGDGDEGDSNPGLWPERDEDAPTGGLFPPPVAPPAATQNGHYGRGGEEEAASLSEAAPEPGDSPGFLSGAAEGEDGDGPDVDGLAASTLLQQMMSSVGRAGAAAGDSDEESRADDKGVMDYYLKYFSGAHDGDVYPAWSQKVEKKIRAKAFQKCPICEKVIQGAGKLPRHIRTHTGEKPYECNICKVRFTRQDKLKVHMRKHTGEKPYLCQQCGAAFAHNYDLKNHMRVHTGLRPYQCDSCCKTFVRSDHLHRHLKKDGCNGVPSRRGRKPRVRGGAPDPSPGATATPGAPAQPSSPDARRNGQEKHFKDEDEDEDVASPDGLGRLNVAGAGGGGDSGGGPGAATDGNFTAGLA
T1 sequence (Q96SW2 whole entry): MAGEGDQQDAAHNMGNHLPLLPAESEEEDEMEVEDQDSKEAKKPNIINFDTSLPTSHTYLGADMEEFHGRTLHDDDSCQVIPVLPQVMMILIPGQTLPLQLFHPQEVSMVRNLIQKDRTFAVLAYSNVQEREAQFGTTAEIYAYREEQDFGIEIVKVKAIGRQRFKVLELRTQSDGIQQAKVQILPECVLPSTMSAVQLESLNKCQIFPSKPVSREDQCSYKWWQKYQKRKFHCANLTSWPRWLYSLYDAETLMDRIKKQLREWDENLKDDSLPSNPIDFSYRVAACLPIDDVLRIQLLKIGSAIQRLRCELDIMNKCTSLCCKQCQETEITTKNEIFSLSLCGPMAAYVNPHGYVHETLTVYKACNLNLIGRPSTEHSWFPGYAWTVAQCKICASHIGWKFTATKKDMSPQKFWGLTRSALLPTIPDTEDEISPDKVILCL
T1 sequence (Q16531 whole entry partner): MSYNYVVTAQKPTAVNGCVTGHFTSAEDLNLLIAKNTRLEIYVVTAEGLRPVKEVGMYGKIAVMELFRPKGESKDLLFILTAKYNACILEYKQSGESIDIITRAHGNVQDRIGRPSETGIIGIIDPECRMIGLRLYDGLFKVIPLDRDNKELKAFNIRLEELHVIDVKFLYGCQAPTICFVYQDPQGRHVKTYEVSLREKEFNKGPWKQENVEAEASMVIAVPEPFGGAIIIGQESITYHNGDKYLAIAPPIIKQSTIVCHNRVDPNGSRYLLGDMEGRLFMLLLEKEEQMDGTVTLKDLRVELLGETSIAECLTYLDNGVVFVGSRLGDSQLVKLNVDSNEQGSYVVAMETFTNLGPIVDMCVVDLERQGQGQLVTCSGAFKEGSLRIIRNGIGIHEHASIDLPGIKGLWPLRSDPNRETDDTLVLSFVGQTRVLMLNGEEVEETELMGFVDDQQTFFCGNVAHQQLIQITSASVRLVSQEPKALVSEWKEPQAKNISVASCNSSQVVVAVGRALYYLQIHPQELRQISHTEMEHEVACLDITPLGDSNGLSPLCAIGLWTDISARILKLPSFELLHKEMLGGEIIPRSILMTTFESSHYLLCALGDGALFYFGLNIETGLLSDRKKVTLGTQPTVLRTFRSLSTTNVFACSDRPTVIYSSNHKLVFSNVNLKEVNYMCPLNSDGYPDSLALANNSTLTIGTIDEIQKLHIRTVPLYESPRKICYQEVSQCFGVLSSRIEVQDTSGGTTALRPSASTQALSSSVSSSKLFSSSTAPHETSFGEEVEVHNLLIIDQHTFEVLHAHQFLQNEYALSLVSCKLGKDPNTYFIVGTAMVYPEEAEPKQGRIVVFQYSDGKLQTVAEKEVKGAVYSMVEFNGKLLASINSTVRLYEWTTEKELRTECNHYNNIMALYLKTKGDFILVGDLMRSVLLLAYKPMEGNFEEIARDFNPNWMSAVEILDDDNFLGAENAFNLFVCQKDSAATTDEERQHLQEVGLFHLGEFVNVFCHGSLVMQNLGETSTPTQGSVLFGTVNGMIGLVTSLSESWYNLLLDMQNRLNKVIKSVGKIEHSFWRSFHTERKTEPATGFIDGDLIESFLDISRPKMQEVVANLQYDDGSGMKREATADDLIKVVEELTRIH
Description: (§1) WIZ Assay and ZBTB7A EC50 Assays. The HiBiT degradation assays for WIZ and ZBTB7A in HUDEP-2 cells were performed as described below. HUDEP-2 cells engineered to express a HiBiT tag in either the WIZ (Widely interspaced zinc finger) or ZBTB7A (Zinc Finger And BTB Domain Containing 7A) proteins were maintained in low attachment flasks in StemSpan SFEM II media supplemented with Penicillin-Streptomycin (50 U/mL), rhSCF (50 ng/mL), rhEPO (3 IU/mL), dexamethasone (0.4 μg/mL) and doxycycline (1 μg/mL). Prior to start of the assay, cell count and viability were measured by trypan blue exclusion using the Vi-cell XR cell viability analyzer.
For the HUDEP-2 ZBTB7A HiBiT assay, cell count and viability were measured by trypan blue exclusion using the Vi-cell XR cell viability analyzer and the cells were transferred to a 50 mL conical and centrifuged at 500 g for five minutes. Cells were resuspended in fresh IMDM media supplemented with L-Glutamine (1×), Penicillin-Streptomycin (50 U/mL), holo-transferrin (330 μg/mL), heparin (2 IU/mL), r-human Insulin (10 μg/mL), rhEPO (3 IU/mL), rhSCF (100 ng/mL)+Dox (1 μg/mL) and 5% human plasma in low attachment flasks, which were placed in a 37° C. incubator with 5% CO2. After 48 hours, cell count and viability were measured by trypan blue exclusion using the Vi-cell XR cell viability analyzer. The HUDEP-2 ZBTB7A cells were transferred to a 50 mL conical, centrifuged at 500 g for five minutes and resuspended at a density of 1.0×10^6 cells/ml in IMDM media supplemented with L-Glutamine (1×), Penicillin-Streptomycin (50 U/mL), holo-transferrin (330 μg/mL), heparin (2 IU/mL), r-human Insulin (10 μg/mL), rhEPO (3 IU/mL), rhSCF (100 ng/mL)+Dox (1 μg/mL) and 5% human plasma. Forty microliters of cell suspension was dispensed into 384-well Low Flange White Flat Bottom Polystyrene TC-treated Microplates containing pre-dispensed compounds, using a VIAFLO 384 liquid hander, and placed in a 37° C. incubator with 5% CO2. […] After 24 hours of treatment, 40 μL Nano-Glo HiBiT Lytic Detection System reagent was dispensed into each well using a VIAFLO 384 liquid hander. Plates were incubated for 25 minutes at room temperature and the luminescence was read as relative luminescent units using the EnVision plate reader. EC50 and Y-min values were calculated using curves calculated from dotmatics software after the normalization to the DMSO control of 10 different concentrations: 10, 3.33, 1.11, 0.37, 0.12, 0.04 0.0137, 0.0046, 0.0015 and […] respectively.

WIZ = target: T2, WIZ (Homo sapiens, UniProt O95785+Q96SW2); assay: HUDEP-2 WIZ HiBiT degradation assay; settings: HiBiT-tagged WIZ degradation in HUDEP-2 cells, 24 hours of treatment; read-out: WIZ EC50
T2 construct: HUDEP-2 cells engineered to express a HiBiT tag in either the WIZ (Widely interspaced zinc finger) or ZBTB7A
T2 sequence (O95785 whole entry): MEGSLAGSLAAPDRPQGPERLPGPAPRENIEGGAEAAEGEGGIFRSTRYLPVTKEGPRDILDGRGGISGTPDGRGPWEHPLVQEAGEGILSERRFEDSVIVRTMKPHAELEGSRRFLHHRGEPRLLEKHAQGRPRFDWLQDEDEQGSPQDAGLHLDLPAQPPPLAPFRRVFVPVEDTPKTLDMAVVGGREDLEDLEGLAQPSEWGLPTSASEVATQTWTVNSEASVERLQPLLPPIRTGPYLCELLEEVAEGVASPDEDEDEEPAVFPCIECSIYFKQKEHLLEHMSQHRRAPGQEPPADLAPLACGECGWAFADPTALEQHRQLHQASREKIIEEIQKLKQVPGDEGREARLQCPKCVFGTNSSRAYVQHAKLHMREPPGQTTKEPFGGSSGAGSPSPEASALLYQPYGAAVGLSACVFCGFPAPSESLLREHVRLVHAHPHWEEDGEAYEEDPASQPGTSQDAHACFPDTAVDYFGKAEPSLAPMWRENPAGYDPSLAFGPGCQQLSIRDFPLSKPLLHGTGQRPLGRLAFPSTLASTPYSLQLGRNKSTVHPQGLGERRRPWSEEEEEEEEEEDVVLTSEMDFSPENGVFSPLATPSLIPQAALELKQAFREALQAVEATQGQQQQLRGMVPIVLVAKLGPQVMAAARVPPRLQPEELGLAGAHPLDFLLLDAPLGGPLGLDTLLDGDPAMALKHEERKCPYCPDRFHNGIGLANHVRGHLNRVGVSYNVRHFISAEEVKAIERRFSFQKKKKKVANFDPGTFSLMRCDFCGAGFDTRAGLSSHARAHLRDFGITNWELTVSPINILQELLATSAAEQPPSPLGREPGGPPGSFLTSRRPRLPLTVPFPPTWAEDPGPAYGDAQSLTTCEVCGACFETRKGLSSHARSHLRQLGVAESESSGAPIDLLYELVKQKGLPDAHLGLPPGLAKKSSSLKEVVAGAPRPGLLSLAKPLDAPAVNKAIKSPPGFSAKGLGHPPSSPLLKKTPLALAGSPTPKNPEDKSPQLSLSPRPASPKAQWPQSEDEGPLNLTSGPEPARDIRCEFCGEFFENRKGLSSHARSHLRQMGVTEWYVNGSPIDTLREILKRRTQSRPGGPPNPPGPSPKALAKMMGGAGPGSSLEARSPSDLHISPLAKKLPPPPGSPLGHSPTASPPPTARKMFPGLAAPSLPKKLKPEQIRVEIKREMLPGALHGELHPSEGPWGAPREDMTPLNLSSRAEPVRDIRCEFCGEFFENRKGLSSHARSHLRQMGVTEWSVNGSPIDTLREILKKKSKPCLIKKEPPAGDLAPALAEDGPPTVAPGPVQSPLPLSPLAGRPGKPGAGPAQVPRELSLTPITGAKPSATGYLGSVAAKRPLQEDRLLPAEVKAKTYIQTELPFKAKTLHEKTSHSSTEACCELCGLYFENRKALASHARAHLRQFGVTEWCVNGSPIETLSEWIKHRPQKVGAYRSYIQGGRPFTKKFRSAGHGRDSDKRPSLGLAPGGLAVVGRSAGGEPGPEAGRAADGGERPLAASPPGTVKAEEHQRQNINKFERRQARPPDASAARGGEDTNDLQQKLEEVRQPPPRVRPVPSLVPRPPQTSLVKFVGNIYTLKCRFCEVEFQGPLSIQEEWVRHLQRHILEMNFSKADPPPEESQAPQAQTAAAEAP
T2 sequence (Q96SW2 whole entry): as the sequence (Q96SW2 whole entry) above
T2 sequence (Q16531 whole entry partner): as the sequence (Q16531 whole entry partner) above
Description: as §1
For the HUDEP-2 WIZ HiBiT assay, cells were transferred to a 50 mL conical and centrifuged at 500 g for five minutes. Cells were resuspended in fresh StemSpan SFEM II media supplemented with Penicillin-Streptomycin (50 U/mL), rhSCF (50 ng/mL), rhEPO (3 IU/mL), dexamethasone (0.4 μg/mL) and doxycycline (1 μg/mL) at a density of 1.0×10^6 cells/ml. Forty microliters of cell suspension was dispensed into 384-well Low Flange White Flat Bottom Polystyrene TC-treated Microplates containing pre-dispensed compounds, using a VIAFLO 384 liquid hander, and placed in a 37° C. incubator with 5% CO2. […] After 24 hours of treatment, 40 μL Nano-Glo HiBiT Lytic Detection System reagent was dispensed into each well using a VIAFLO 384 liquid hander. Plates were incubated for 25 minutes at room temperature and the luminescence was read as relative luminescent units using the EnVision plate reader. EC50 and Y-min values were calculated using curves calculated from dotmatics software after the normalization to the DMSO control of 10 different concentrations: 10, 3.33, 1.11, 0.37, 0.12, 0.04 0.0137, 0.0046, 0.0015 and […] respectively.

HbF = HbF HiBiT induction assay in HUDEP-2 cells; settings: HUDEP-2 cells with HiBiT tag in HBG1/2, 72 hours of treatment; area under the dose response curve, higher AUC = greater HbF induction
Description: HbF HiBiT induction assay. The HiBiT induction assay for HbF in HUDEP-2 cells was performed as described below. HUDEP-2 cells engineered to express a HiBiT tag in HBG1/2 were maintained at a density of 0.1-1×10^6 cells/ml in StemSpan SFEM II supplemented with 1% penicillin/streptomycin, hSCF (50 ng/mL), erythropoietin (EPO; 3 IU/mL), dexamethasone (DEX; 0.4 μg/mL), and doxycycline hyclate (DOX; 1 μg/mL). The cells were cultured in low adherence flasks, in a humidified incubator, set at 37° C. with 5% CO2. Cell counts and viability were measured by trypan blue exclusion using the Vi-CELL XR cell viability analyzer and the cell growth was consistently maintained in log phase.
Prior to the start of experiments, HbF HiBiT-tagged HUDEP-2 cells were transferred to a 50 mL conical and centrifuged at 500×g for 5 minutes, the supernatant removed, and the pellet washed in 5 mL of 1×PBS. The washed cells were centrifuged again at 500×g for 5 minutes and resuspended in IMDM containing; 1×glutamine, 1×penicillin/streptomycin, holo-transferrin (330 μg/mL), heparin (2 IU/mL), r-human insulin (10 μg/mL), EPO (3 IU/mL), 5% human plasma, hSCF (100 ng/mL) and DOX (1 μg/mL) to a final density of 0.3×10^6 cells/mL. Forty microliters of cell suspension were dispensed into 384-well Low Flange White Flat Bottom Polystyrene TC-treated Microplates containing pre-dispensed compounds, using a VIAFLO 384 liquid hander, and placed in a humidified incubator at 37° C. with 5% CO2. […] After 72 hours of treatment, 40 μL of Nano-Glo HiBiT Lytic Solution (prepared according to manufacturer's instructions) were dispensed into each well using a VIAFLO 384 liquid handler, and the plates were shaken for 20 seconds. Plates were incubated for 20 minutes at room temperature, and the luminescence was read as relative luminescent units using an EnVision plate reader.
Dose response curves were generated, and EC50, Ymax, and then area under the curve (AUC) values were calculated. HbF induction was measured using the calculated area under the curve (AUC) value, with higher AUC values indicative of greater HbF induction relative to lower AUC values.

| SMILES | DC50 (ZBTB7A) [µM] | DC50 (WIZ) [µM] | HBF AUC (HbF) |
| --- | --- | --- | --- |
| CCOc1nccc(-c2cc3c(cc2Nc2cccc4c2C(=O)N(C2CCC(=O)NC2=O)C4=O)N(C)C(=O)CO3)c1C (stereo not drawn) [Compound 64, 2-(2,6-dioxopiperidin-3-yl)-4-((7-(2-ethoxy-3-methylpyridin-4-yl)-4-methyl-3-oxo-3,4-dihydro-2H-benzo[b][1,4]oxazin-6-yl)amino)isoindoline-1,3-dione] | 0.053 | 0.012 | ++ (++ = 100 ≤ AUC < 150) |
| COc1ccc(-c2cc3c(cc2Nc2cccc4c2C(=O)N([C@H]2CCC(=O)NC2=O)C4=O)N(C)C(=O)[C@H](C)O3)cn1 [Compound 40, 2-((S)-2,6-dioxopiperidin-3-yl)-4-(((S)-7-(6-methoxypyridin-3-yl)-2,4-dimethyl-3-oxo-3,4-dihydro-2H-benzo[b][1,4]oxazin-6-yl)amino)isoindoline-1,3-dione] | 0.016 | 0.012 | + (+ = 15 ≤ AUC < 100) |
| Cc1cc(-c2cc3c(cc2Nc2cccc4c2C(=O)N([C@H]2CCC(=O)NC2=O)C4=O)N(C)[C@H](C)CO3)ccn1 [Compound 3, 4-(((R)-3,4-dimethyl-7-(2-methylpyridin-4-yl)-3,4-dihydro-2H-benzo[b][1,4]oxazin-6-yl)amino)-2-((S)-2,6-dioxopiperidin-3-yl)isoindoline-1,3-dione] | 0.029 | 0.017 | +++ (+++ = AUC ≥ 150) |
| CNc1cc(-c2cc3c(cc2Nc2cccc4c2C(=O)N(C2CCC(=O)NC2=O)C4=O)N(C)C(=O)CO3)c(F)cn1 (stereo not drawn) [Compound 60, 2-(2,6-dioxopiperidin-3-yl)-4-((7-(5-fluoro-2-(methylamino)pyridin-4-yl)-4-methyl-3-oxo-3,4-dihydro-2H-benzo[b][1,4]oxazin-6-yl)amino)isoindoline-1,3-dione] | 0.011 | 0.009 | +++ (+++ = AUC ≥ 150) |
| Cc1cc(-c2cc3c(cc2Nc2cccc4c2C(=O)N(C2CCC(=O)NC2=O)C4=O)N(C)C(=O)CC3(C)C)ccn1 (stereo not drawn) [Compound 83, 2-(2,6-dioxopiperidin-3-yl)-4-((1,4,4-trimethyl-6-(2-methylpyridin-4-yl)-2-oxo-1,2,3,4-tetrahydroquinolin-7-yl)amino)isoindoline-1,3-dione] | 0.013 | 0.008 | + (+ = 15 ≤ AUC < 100) |

More lines, in order of falling DC50 (ZBTB7A), values ahead:

| DC50 (ZBTB7A) [µM] | DC50 (WIZ) [µM] | SMILES | HBF AUC (HbF) |
| --- | --- | --- | --- |
| 0.071 | 0.039 | Cc1cc(-c2cc3c(cc2Nc2cccc4c2C(=O)N([C@H]2CCC(=O)NC2=O)C4=O)N(C)C(=O)[C@@H](C)O3)cc(C(F)F)n1 [Compound 49, 4-(((R)-7-(2-(difluoromethyl)-6-methylpyridin-4-yl)-2,4-dimethyl-3-oxo-3,4-dihydro-2H-benzo[b][1,4]oxazin-6-yl)amino)-2-((S)-2,6-dioxopiperidin-3-yl)isoindoline-1,3-dione] | ++ (++ = 100 ≤ AUC < 150) |
| 0.065 | 0.022 | COc1cc(-c2c(Nc3cccc4c3C(=O)N([C@H]3CCC(=O)NC3=O)C4=O)cc3c(c2F)OCC(=O)N3C)c(F)cn1 [Compound 76, 2-((S)-2,6-dioxopiperidin-3-yl)-4-((8-fluoro-7-(5-fluoro-2-methoxypyridin-4-yl)-4-methyl-3-oxo-3,4-dihydro-2H-benzo[b][1,4]oxazin-6-yl)amino)isoindoline-1,3-dione] | + (+ = 15 ≤ AUC < 100) |
| 0.048 | 0.009 | Cc1cc(-c2cc3c(cc2Nc2cccc4c2C(=O)N([C@H]2CCC(=O)NC2=O)C4=O)N(C)C(=O)[C@@H](C)C3)ccn1 [Compound 86, 4-(((S)-1,3-dimethyl-6-(2-methylpyridin-4-yl)-2-oxo-1,2,3,4-tetrahydroquinolin-7-yl)amino)-2-((S)-2,6-dioxopiperidin-3-yl)isoindoline-1,3-dione] | + (+ = 15 ≤ AUC < 100) |
| 0.022 | 0.007 | CN(C)c1cc(-c2cc3c(cc2Nc2cccc4c2C(=O)N(C2CCC(=O)NC2=O)C4=O)N(C)C(=O)CO3)ccn1 (stereo not drawn) [Compound 15, 4-((7-(2-(dimethylamino)pyridin-4-yl)-4-methyl-3-oxo-3,4-dihydro-2H-benzo[b][1,4]oxazin-6-yl)amino)-2-(2,6-dioxopiperidin-3-yl)isoindoline-1,3-dione] | + (+ = 15 ≤ AUC < 100) |
| 0.021 | 0.015 | Cc1cc(-c2cc3c(cc2Nc2cccc4c2C(=O)N([C@H]2CCC(=O)NC2=O)C4=O)N(C)C(=O)CO3)cc(C)n1 [Compound 8, (S)-4-((7-(2,6-dimethylpyridin-4-yl)-4-methyl-3-oxo-3,4-dihydro-2H-benzo[b][1,4]oxazin-6-yl)amino)-2-(2,6-dioxopiperidin-3-yl)isoindoline-1,3-dione] | +++ (+++ = AUC ≥ 150) |
| 0.02 | 0.012 | Cc1cc(-c2cc3c(cc2Nc2cccc4c2C(=O)N([C@H]2CCC(=O)NC2=O)C4=O)N(C)C(=O)CO3)cc(N)n1 [Compound 10, (S)-4-((7-(2-amino-6-methylpyridin-4-yl)-4-methyl-3-oxo-3,4-dihydro-2H-benzo[b][1,4]oxazin-6-yl)amino)-2-(2,6-dioxopiperidin-3-yl)isoindoline-1,3-dione] | ++ (++ = 100 ≤ AUC < 150) |
| 0.013 | 0.014 | CCN1C(=O)CCc2cc(-c3ccnc(C)c3)c(Nc3cccc4c3C(=O)N([C@H]3CCC(=O)NC3=O)C4=O)cc21 [Compound 89, (S)-2-(2,6-dioxopiperidin-3-yl)-4-((1-ethyl-6-(2-methylpyridin-4-yl)-2-oxo-1,2,3,4-tetrahydroquinolin-7-yl)amino)isoindoline-1,3-dione] | + (+ = 15 ≤ AUC < 100) |
